Data on 14 compounds can be found in publication PMC9144329, “Multitarget Action of Xanthones from Garcinia mangostana against α-Amylase, α-Glucosidase and Pancreatic Lipase” (Molecules, 2022).

The test system of one data set is PL. The conditions noted are these: cited from earlier work.
Data set [1] deals with T1, pancreatic lipase type II (PL) from porcine pancreas (Sus scrofa, UniProt P00591).
T1 construct: pancreatic lipase type II (PL) from porcine pancreas; purchased Sigma-Aldrich L-SLBD2433V; host or cells: porcine pancreas
T1 sequence (P00591 1-450): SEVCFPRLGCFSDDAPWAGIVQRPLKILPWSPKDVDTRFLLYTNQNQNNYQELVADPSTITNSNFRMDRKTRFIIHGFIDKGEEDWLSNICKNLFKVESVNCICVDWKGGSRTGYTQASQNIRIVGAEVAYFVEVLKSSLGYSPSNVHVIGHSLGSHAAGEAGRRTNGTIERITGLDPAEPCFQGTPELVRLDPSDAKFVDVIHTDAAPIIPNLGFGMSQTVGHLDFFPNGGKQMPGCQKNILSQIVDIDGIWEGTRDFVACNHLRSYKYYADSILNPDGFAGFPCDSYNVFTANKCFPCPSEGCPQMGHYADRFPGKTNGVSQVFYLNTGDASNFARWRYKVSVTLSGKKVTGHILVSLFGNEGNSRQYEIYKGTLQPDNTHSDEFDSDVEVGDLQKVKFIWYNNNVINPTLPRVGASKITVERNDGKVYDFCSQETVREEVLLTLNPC
The data set is described as follows: Kinetic study on PL. The data set is classed as biochemical. The conditions noted are these: for Ki: substrate p-nitrophenyl dodecanoate.

Data set [2] has as its target T2, α-glucosidase (AG) type I from Saccharomyces cerevisiae (Saccharomyces cerevisiae, UniProt P53341). The data set is described as follows: biochemical. Set-up: purchased Sigma-Aldrich L-SLBX6245. The class given is biochemical.
Data set [3] deals with T2, α-glucosidase (AG) type I from Saccharomyces cerevisiae. The data set can be described thus: biochemical.
Data set [4] concerns the target T3, α-amylase (AA) type VI-B from porcine pancreas (Sus scrofa, UniProt P00690).
T3 sequence (P00690 16-511): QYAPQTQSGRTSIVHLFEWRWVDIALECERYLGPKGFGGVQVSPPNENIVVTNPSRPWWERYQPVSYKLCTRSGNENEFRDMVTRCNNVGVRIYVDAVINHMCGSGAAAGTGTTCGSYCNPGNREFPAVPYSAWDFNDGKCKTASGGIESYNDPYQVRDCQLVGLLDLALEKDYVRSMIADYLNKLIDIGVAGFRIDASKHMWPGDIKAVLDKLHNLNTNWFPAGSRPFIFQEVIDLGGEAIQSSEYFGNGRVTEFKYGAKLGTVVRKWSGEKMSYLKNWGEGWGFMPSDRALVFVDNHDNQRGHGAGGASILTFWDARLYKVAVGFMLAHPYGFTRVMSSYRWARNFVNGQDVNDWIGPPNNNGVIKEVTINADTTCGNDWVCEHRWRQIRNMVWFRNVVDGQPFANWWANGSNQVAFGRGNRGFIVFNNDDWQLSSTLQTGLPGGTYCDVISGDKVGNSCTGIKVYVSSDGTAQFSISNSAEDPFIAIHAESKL
The data set is described as follows: AA inhibition assay. The conditions noted are these: for IC50: α-Amylase IC50 (µM), evaluated range 6.25 µM–1000 µM, mean of n = 3 ± SD.

Data set [5] addresses T1, pancreatic lipase type II (PL) from porcine pancreas. The data set can be described thus: PL inhibition assay. The class given is biochemical. The note with it: for IC50: evaluated range 6.25 µM–1000 µM, mean of n = 3 ± SD.
For another data set, the target named is α-glucosidase. The conditions noted are these: cited from earlier work.
For data set [6], the target named is T3, α-amylase (AA) type VI-B from porcine pancreas. The data set is described as follows: Kinetic study on AA. The class given is biochemical. Set-up: α-amylase (AA) type VI-B from porcine pancreas; purchased Sigma-Aldrich L-SLBP4061V; host or cells: porcine pancreas. The note with it: for Ki: substrate starch.
Another data set concerns α-amylase. The conditions noted are these: cited from earlier work; for % inhibition of AA, previous studies: at a concentration of 100 µM.
Data set [7] deals with T2, α-glucosidase (AG) type I from Saccharomyces cerevisiae.
Where [8] appears, read: ref 17, 37, read-out: IC50 against PL, previous studies.
[9] abbreviates: substrate p-nitrophenyl-α-D-glucopyranoside, read-out: α-Glucosidase Ki.
The mark [10] stands for this setting: α-Glucosidase IC50 (µM), evaluated range 6.25 µM–1000 µM, mean of n = 3 ± SD.
The mark [11] stands for this setting: ref 39, read-out: IC50 against AG, Ryu and collaborators.
[12] abbreviates: ref 31-34, read-out: IC50 against PL.
Setting [13] is: ref 10, read-out: IC50 against AG, Li and collaborators.
Setting [14] is: ref 53, read-out: IC50 against AG, Vongsak and collaborators.
Setting [15] is: ref 31-34, read-out: IC50 against α-amylase.

Like-named read-outs stand apart in the source and are kept apart here.

T2 sequence (P53341 whole entry): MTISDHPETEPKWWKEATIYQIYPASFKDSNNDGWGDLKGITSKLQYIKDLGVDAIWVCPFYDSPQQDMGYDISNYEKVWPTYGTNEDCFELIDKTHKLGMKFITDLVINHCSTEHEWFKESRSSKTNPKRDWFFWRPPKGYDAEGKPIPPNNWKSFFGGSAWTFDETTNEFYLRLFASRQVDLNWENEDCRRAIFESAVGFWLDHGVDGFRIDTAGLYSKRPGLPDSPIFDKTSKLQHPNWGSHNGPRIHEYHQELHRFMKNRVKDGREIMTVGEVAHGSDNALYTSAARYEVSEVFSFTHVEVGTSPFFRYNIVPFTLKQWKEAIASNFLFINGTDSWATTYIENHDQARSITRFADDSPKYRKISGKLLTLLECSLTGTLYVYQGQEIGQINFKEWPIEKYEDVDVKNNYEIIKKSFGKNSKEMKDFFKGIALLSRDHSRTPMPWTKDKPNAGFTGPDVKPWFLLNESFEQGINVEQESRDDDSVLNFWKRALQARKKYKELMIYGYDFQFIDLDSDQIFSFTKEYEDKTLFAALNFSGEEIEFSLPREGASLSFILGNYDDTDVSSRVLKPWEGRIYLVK

A word on the IC50: it is the concentration needed to halve the response being measured. As usually defined, the Ki is the dissociation constant of the complex between target and ligand, obtained from inhibition or displacement. With `COc1c(O)cc2oc3cc4c(c(O)c3c(=O)c2c1CC=C(C)C)C=CC(C)(C)O4` [Compound 1, 9-hydroxycalabaxanthone], the IC50 in the data set on PL (setting [8]) was 12 µM; in [3] (setting [10]), 157 ± 2.1 µM; in [4], > 1000 µM; in data set [5], 138 ± 6.8 µM; on α-glucosidase (setting [11]) it was 34.2 µM. In [1], the “type of inhibition against PL (in words)” value is listed as “non-competitive inhibitors”. Also, the Ki in [1] came out at 138 µM; in [2] (setting [9]), 154 µM. In data set [2], the “type of inhibition of AG (in words)” value is given as “uncompetitive inhibitor”. In data set [4], the “inhibitory activity on AA (in words)” value is “completely lost”.

On to `CC(C)=CCc1c(O)c(CC=C(C)C)c2oc3c(O)cccc3c(=O)c2c1O` [Compound 2, 8-deoxygartanin], for which the IC50 in the data set on PL (setting [8]) was 50 µM; in [3] (setting [10]), 248 ± 4 µM; in data set [4], 166 ± 4.1 µM; in data set [5] it was 326 ± 7.1 µM; at α-glucosidase (setting [11]) it was 21.5 µM. In addition, the “type of inhibition against PL (in words)” value in data set [1] is given as “non-competitive inhibitors”. The Ki came to 326 µM in data set [1], 248 µM in data set [2] (setting [9]) and 166 µM in [6]. Further, in [6], the “type of inhibition on AA (in words)” value was “non-competitive type of inhibitor”.

For the compound `CC(C)=CCc1c(O)c(CC=C(C)C)c2oc3c(O)ccc(O)c3c(=O)c2c1O` [Compound 3, gartanin], the IC50 in the data set on PL (setting [8]) was 12 µM; in data set [3] (setting [10]) it was 124 ± 8.2 µM; in data set [4] it was > 1000 µM; in [5], 135 ± 1.5 µM; at α-glucosidase (setting [11]) it was 10 µM. Besides, the “type of inhibition against PL (in words)” value in data set [1] is recorded as “uncompetitive inhibitors”. The Ki in data set [1] stood at 130 µM; in [2] (setting [9]), 124 µM.

Take `COc1c(O)cc2oc3cc(O)c(CC=C(C)C)c(O)c3c(=O)c2c1CC=C(C)C` [Compound 4, α-mangostin]: the IC50 was 47.3 µM in the data set with PL (setting [8]); 5 µM with PL (setting [12]); 31.6 ± 2.6 µM in [3]; 318 ± 4.3 µM in [4]; 50.6 ± 6.7 µM in data set [5]; 10 µM at α-glucosidase (setting [13]). The IC50 at α-glucosidase (setting [11]) is 5 µM; on α-glucosidase (setting [14]) it was 29.2 µM; on α-amylase (ref 17, read-out: IC50 against AA, previous studies) it was 29.6 µM. In [1], the “type of inhibition against PL (in words)” value was “non-competitive inhibitors”. Also, the figures for the Ki in data set [1], in data set [2] and in data set [6] were 50.6 µM, 31.6 µM and 240 µM, respectively. Further, the “type of inhibition on AA (in words)” value in [6] is on record as “competitive type inhibitors”. In addition, the “% inhibition of AA, previous studies” value with α-amylase is listed as 60%.

For the compound `CC(C)=CCc1c(O)cc2oc3cc(O)c(O)c(CC=C(C)C)c3c(=O)c2c1O` [Compound 5, γ-mangostin], the IC50 with PL (setting [12]) was 10 µM; in data set [3] (setting [10]), 84.7 ± 6.7 µM; in data set [4], 333 ± 4.5 µM; in [5] it was 67.1 ± 2.8 µM; at α-glucosidase (setting [13]), 5 µM; at α-glucosidase (setting [11]), 1.5 µM. Further, on α-glucosidase (setting [14]), the IC50 was 4.2 µM. Besides, the Ki was determined as 57.2 µM in data set [1], 84.7 µM in data set [2] and 139 µM in data set [6]. In data set [6], the “type of inhibition on AA (in words)” value is reported as “competitive type inhibitors”. The “% inhibition of AA, previous studies” value in the data set with α-amylase is listed as 67.3%.

In general, melting point refers to the temperature, or range, at which the solid turns liquid. In turn, `COc1cc2oc3cc(OC)c(OC)c(CC=C(C)C)c3c(=O)c2c(O)c1CC=C(C)C` [Compound 6, fuscaxanthone C] had a melting point of 118 to 120 °C. For the same compound, in data set [1], the “type of inhibition against PL (in words)” value is reported as “mixed inhibitors” and the Ki was found to be 69.2 µM. Also, the “type of inhibition of AG (in words)” value in data set [2] was “competitive inhibitors”. The Ki in data set [2] (setting [9]) came out at 0.3 µM. For the same compound, in data set [3] (setting [10]), the IC50 turned out to be 33.3 ± 4.1 µM. For the same compound, inhibition in [4] was half-maximal at 164.4 ± 0.9 µM (IC50). This compound also had an IC50 in data set [5] of 69.2 ± 4.9 µM. In addition, in data set [6], the “type of inhibition on AA (in words)” value is reported as “competitive type inhibitors” and the Ki was 28.6 µM.

Consider `COc1c(O)cc2oc3cc4c(c(O)c3c(=O)c2c1CC=C(C)C)CCC(C)(C)O4` [Compound 7, 3-isomangostin], for which the Ki in [2] (setting [9]) was found to be 37.2 µM. Besides, in [3], the IC50 amounted to 37.2 ± 4.1 µM. Besides, in data set [4], the “inhibitory activity on AA (in words)” value is given as “completely lost” and the IC50 was > 1000 µM. Also, in [5], the “inhibition in the catalytic activity of PL (in words)” value (shortened to “inhibition … of PL (in words)”) is “did not cause any inhibition” and the IC50 was > 1000 µM.

`CC1(C)CCc2c(cc3oc4cc(O)c5c(c4c(=O)c3c2O)CCC(C)(C)O5)O1` [Compound 8, BR-xanthone A] gave a melting point of 160 to 162 °C. Further, the IC50 in data set [3] was > 1000 µM. For the same compound, in data set [4], the “inhibitory activity on AA (in words)” value is reported as “completely lost” and the IC50 was > 1000 µM. Besides, in data set [5], the “inhibition … of PL (in words)” value is given as “did not cause any inhibition” and the IC50 is > 1000 µM. For the same compound, the “inhibition in the catalytic activity of AG (in words)” value in data set [7] is given as “did not cause any inhibition”.

For the compound `COc1c(O)cc2oc3cc(O)c(CCC(C)C)c(O)c3c(=O)c2c1CCC(C)C` [Compound 9, tetrahydro-α-mangostin], the “type of inhibition against PL (in words)” value in [1] is recorded as “mixed inhibitors”. The Ki was 405 µM in data set [1], 34.2 µM in data set [2] and 90.1 µM in [6]. In data set [2], the “type of inhibition of AG (in words)” value is listed as “competitive inhibitors”. In addition, the figures for the 50% inhibitory concentration (IC50) in data set [3], in data set [4] and in [5] were 34.2 ± 1.8 µM, 90.1 ± 6 µM and 454.6 ± 1.9 µM, respectively. Further, the “type of inhibition on AA (in words)” value in [6] is on record as “competitive type inhibitors”.

In the case of `CCCCCOc1cc2oc3cc(OCCCCC)c(OC)c(CC=C(C)C)c3c(=O)c2c(O)c1CC=C(C)C` [Compound 10, 3,6-di-pentoxy-α-mangostin], the IC50 in data set [3] (setting [10]), in [4] and in data set [5] was > 1000 µM throughout. The “inhibition … of PL (in words)” value in data set [5] is “did not cause any inhibition”. Further, the “inhibition in the catalytic activity of AG (in words)” value in [7] is reported as “did not cause any inhibition”.

`COc1cc2oc3c(C)c(OC)c(CC=C(C)C)c(O)c3c(=O)c2c(CC=C(C)C)c1OC` [Compound 11, 3,6-di-methoxy-4-methyl-α-mangostin]: in [1], the “type of inhibition against PL (in words)” value is “mixed inhibitors” and the Ki was 59.4 µM. For the same compound, the IC50 in data set [3] (setting [10]) is > 1000 µM. Further, in data set [4], the “inhibitory activity on AA (in words)” value was “completely annuls the activity” and the IC50 is > 1000 µM. The same compound registered an IC50 in data set [5] of 59.4 ± 3.8 µM. The “inhibition in the catalytic activity of AG (in words)” value in [7] is listed as “did not cause any inhibition”.

For the compound `O=C(c1cc(O)ccc1O)c1c(O)cc(O)cc1O[C@@H]1O[C@H](CO)[C@@H](O)[C@H](O)[C@H]1O` [Garcimangophenone B, reference compound], the IC50 at α-amylase (setting [15]) is 12.2 µM.

In the case of “Garcimangophenones A [Garcimangophenone A, reference compound]”, the IC50 at α-amylase (setting [15]) was 9.3 µM.

Regarding mangoxanthone A [reference compound], the IC50 is 29.1 µM at α-glucosidase (ref 31-34, read-out: IC50 against α-glucosidase) and 22.7 µM at α-amylase (setting [15]).
